Molecular target: T1, human NaV1.8 (Homo sapiens, UniProt Q9Y5Y9)
T1 construct: The following NaV1.8 recombinant cell line was used for recordings: HEK-NaV1.8 (NM 006514.1); expressed in transfected cells; host or cells: HEK (recombinant cell line HEK-NaV1.8)
Assay: Electrophysiology: automated whole-cell voltage-clamp (patch clamp, Qube384) recordings of sodium currents in HEK-NaV1.8 cells
Type: cell-based
Settings: potency data either taken from inactivated or resting state, read-out: Potency category (human NaV1.8 IC50)
In short: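 Automated whole-cell patch clamp at room temperature on HEK cells expressing human NaV1.8, with 0.3% DMSO vehicle controls. State-dependent protocol from −120 mV tested resting (P1) and half-inactivated (P2, 4 s at V1/2) channels, plus 40-pulse trains at 10 and 20 Hz. Values after ~12 min compound exposure were normalised to baseline and corrected for vehicle run-down; IC50 from a 4-parameter logistic fit, taken from inactivated or resting state.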

T1 sequence (Q9Y5Y9 whole entry): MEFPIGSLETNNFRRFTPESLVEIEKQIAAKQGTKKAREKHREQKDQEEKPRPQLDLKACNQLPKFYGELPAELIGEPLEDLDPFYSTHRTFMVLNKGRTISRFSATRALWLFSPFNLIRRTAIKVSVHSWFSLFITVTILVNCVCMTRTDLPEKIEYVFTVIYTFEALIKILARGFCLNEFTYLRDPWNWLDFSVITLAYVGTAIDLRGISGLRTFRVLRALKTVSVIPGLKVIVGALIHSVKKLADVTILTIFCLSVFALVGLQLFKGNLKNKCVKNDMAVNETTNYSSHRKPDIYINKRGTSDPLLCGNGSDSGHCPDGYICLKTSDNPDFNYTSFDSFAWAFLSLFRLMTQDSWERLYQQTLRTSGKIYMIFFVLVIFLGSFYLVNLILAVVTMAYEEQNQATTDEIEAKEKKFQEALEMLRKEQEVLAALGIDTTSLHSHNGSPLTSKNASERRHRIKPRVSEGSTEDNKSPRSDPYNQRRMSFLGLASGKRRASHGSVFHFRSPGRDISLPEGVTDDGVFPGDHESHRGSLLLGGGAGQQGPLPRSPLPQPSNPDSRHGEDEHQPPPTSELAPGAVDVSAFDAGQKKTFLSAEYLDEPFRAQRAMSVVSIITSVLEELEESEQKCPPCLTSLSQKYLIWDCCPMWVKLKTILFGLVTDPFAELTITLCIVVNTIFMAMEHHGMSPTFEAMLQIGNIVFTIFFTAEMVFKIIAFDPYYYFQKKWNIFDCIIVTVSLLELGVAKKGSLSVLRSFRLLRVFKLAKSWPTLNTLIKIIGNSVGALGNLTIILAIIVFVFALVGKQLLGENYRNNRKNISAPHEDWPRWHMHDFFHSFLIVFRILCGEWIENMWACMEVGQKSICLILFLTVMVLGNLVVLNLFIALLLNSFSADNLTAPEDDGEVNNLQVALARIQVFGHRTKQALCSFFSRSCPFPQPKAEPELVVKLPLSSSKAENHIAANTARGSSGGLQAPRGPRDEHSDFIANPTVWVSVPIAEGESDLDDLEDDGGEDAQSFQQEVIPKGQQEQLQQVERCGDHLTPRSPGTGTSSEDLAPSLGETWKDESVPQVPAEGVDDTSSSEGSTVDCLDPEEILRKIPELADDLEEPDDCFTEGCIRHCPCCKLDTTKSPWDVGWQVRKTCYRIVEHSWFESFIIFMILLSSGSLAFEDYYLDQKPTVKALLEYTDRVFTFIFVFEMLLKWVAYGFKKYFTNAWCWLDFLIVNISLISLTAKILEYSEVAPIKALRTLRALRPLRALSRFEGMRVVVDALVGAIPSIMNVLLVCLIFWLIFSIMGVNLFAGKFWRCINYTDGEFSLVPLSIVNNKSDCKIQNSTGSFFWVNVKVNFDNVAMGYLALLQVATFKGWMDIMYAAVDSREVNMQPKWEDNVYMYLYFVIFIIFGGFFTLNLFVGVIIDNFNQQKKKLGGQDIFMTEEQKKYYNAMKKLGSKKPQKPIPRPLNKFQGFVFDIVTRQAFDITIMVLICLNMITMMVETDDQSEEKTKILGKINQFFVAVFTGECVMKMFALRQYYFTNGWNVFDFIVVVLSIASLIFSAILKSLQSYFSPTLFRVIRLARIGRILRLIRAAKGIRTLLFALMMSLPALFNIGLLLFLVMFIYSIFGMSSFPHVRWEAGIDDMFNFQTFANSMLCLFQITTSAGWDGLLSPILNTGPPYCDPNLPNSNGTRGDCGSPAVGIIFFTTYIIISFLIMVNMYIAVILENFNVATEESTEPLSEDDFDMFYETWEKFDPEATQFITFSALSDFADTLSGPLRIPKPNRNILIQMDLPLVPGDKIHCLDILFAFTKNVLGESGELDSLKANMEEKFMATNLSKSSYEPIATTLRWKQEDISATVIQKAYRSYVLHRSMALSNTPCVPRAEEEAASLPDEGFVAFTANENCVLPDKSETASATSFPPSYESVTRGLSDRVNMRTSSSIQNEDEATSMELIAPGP
T1 sequence (Q9NY72 23-215 partner): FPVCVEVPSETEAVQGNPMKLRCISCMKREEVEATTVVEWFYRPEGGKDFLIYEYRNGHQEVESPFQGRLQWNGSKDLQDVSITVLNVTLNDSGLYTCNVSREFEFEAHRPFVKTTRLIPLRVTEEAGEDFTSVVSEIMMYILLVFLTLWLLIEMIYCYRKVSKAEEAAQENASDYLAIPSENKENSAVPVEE

Compound | IC50
NC(=O)c1cccc(NC(=O)c2c(C(F)(F)F)cnn2CC2CCC(F)(F)CC2)c1 [SC-41, N-(3-carbamoylphenyl)-2-[(4,4-difluorocyclohexyl)methyl]-4-(trifluoromethyl)pyrazole-3-carboxamide] | 0.1 to 1 µM
CS(=O)(=O)c1cc(F)cc(NC(=O)c2c(C(F)(F)F)cnn2CC2CCC(F)(F)CC2)c1 [SC-42, 2-[(4,4-difluorocyclohexyl)methyl]-N-(3-fluoro-5-methylsulfonylphenyl)-4-(trifluoromethyl)pyrazole-3-carboxamide] | 1 to 10 µM
NS(=O)(=O)c1cccc(NC(=O)c2c(C(F)(F)F)cnn2CC2CCC(F)(F)CC2)c1 [SC-43, 2-[(4,4-difluorocyclohexyl)methyl]-N-(3-sulfamoylphenyl)-4-(trifluoromethyl)pyrazole-3-carboxamide] | 0.1 to 1 µM
Cc1nn(CC2CCC(F)(F)CC2)c(C(=O)Nc2cccc(S(C)(=O)=O)c2)c1C [SC-44, 2-[(4,4-difluorocyclohexyl)methyl]-4,5-dimethyl-N-(3-methylsulfonylphenyl)pyrazole-3-carboxamide] | 0.1 to 1 µM
Cc1nn(CC2CCOCC2)c(C(=O)Nc2cccc(S(N)(=O)=O)c2)c1C [SC-45, 3,4-dimethyl-N-(3-sulfamoylphenyl)-1-((tetrahydro-2H-pyran-4-yl)methyl)-1H-pyrazole-5-carboxamide] | 1 to 10 µM
Cc1c([C@@H](C)C(F)(F)F)nn(CC2CC(F)(F)C2)c1C(=O)Nc1ccnc(C(N)=O)c1 [SC-188a] | 0.1 to 1 µM
Cc1c([C@H](C)C(F)(F)F)nn(CC2CC(F)(F)C2)c1C(=O)Nc1ccnc(C(N)=O)c1 [SC-188b] | 0.1 to 1 µM
Cc1c([C@@H](C)C(F)F)nn(CC2CC(F)(F)C2)c1C(=O)Nc1ccnc(C(N)=O)c1 [SC-192a] | 0.1 to 1 µM
Cc1c([C@H](C)C(F)F)nn(CC2CC(F)(F)C2)c1C(=O)Nc1ccnc(C(N)=O)c1 [SC-192b] | 0.1 to 1 µM
Cc1c(OC(F)F)nn(CC2CCC(F)(F)C2)c1C(=O)Nc1ccnc(C(N)=O)c1 (stereo not drawn) [SC-196, 4-(1-((3,3-difluorocyclopentyl)methyl)-3-(difluoromethoxy)-4-methyl-1H-pyrazole-5-carboxamido)picolinamide] | ≤ 0.1 µM
Cc1c(C(C)(F)F)nn(CC2(C)CC(F)(F)C2)c1C(=O)Nc1ccnc(C(N)=O)c1 [SC-208, 4-(1-((3,3-difluoro-1-methylcyclobutyl)methyl)-3-(1,1-difluoroethyl)-4-methyl-1H-pyrazole-5-carboxamido)picolinamide] | ≤ 0.1 µM
Cc1c(C(C)(F)F)nn(CC2(C)CC(F)(F)C2)c1C(=O)Nc1ccnc(S(N)(=O)=O)c1 [SC-209, 1-((3,3-difluoro-1-methylcyclobutyl)methyl)-3-(1,1-difluoroethyl)-4-methyl-N-(2-sulfamoylpyridin-4-yl)-1H-pyrazole-5-carboxamide] | ≤ 0.1 µM
Cc1c(C(C)(F)F)nn(CC2(C)CC(F)(F)C2)c1C(=O)Nc1ccnc(S(C)(=O)=O)c1 [SC-210, 1-((3,3-difluoro-1-methyleyclobutyl)methyl)-3-(1,1-difluoroethyl)-4-methyl-N-(2-(methylsulfonyl)pyridin-4-yl)-1H-pyrazole-5-carboxamide] | ≤ 0.1 µM
Cc1c(C(C)(F)F)nn(CC2CCC(F)(F)C2)c1C(=O)Nc1ccnc(S(N)(=O)=O)c1 (stereo not drawn) [SC-211, 1-((3,3-difluorocyclopentyl)methyl)-3-(1,1-difluoroethyl)-4-methyl-N-(2-sulfamoylpyridin-4-yl)-1H-pyrazole-5-carboxamide] | ≤ 0.1 µM
Cc1c(C(C)(F)F)nn(CC2(C)CCC(F)(F)C2)c1C(=O)Nc1ccnc(S(C)(=O)=O)c1 (stereo not drawn) [SC-213, 1-((3,3-difluoro-1-methyleyclopentyl)methyl)-3-(1,l-difluoroethyl)-4-methyl-N-(2-(methylsulfonyl)pyridin-4-yl)-1H-pyrazole-5-carboxamide] | ≤ 0.1 µM
Cc1c(C(C)(F)F)nn(CC2CC(F)(F)C2)c1C(=O)Nc1ccnc(S(N)(=O)=O)c1 [SC-215, 1-((3,3-difluorocyclobutyl)methyl)-3-(1,1-difluoroethyl)-4-methyl-N-(2-sulfamoylpyridin-4-yl)-lH-pyrazole-5-carboxamide] | ≤ 0.1 µM

Other lines, results leading:

IC50 | Compound
≤ 0.1 µM | CS(=O)(=O)n1cc(NC(=O)c2c(C(F)(F)F)cnn2CC2CCCCC2)c2cccnc21 [SC-53, 1-(cyclohexylmethyl)-N-(1-(methylsulfonyl)-1H-pyrrolo[2,3-b]pyridin-3-yl)-4-(trifluoromethyl)-1H-pyrazole-5-carboxamide]
≤ 0.1 µM | Cc1nn(CC2CCC(F)(F)CC2)c(C(=O)Nc2ccnc(C(N)=O)c2)c1C(F)(F)F [SC-84, 4-(1-((4,4-difluorocyclohexyl)methyl)-3-methyl-4-(trifluoromethyl)-1H-pyrazole-5-carboxamido)picolinamide]
≤ 0.1 µM | CC1CC(Cn2nc(C3CC3)c(C(F)(F)F)c2C(=O)Nc2ccnc(C(N)=O)c2)CCO1 (stereo not drawn) [SC-135, 4-(3-cyclopropyl-1-((2-methyltetraliydro-2H-pyran-4-yl)methyl)-4-(trifluoromethyl)-1H-pyrazole-5-carboxamido)picolinamide]
≤ 0.1 µM | NC(=O)c1cc(NC(=O)c2c(C(F)(F)F)c(C3CC3)nn2CC2CCCCO2)ccc1F (stereo not drawn) [SC-140, N-(3-carbamoyl-4-fluorophenyl)-3-cyclopropyl-1-((tetrahydro-2H-pyran-2-yl)methyl)-4-(trifluoromethyl)-1H-pyrazole-5-carboxamide]
≤ 0.1 µM | NC(=O)c1cc(NC(=O)c2c(C(F)(F)F)c(C(F)F)nn2CC2CC(F)(F)C2)ccc1F [SC-141, N-(3-carbamoyl-4-fluorophenyl)-1-((3,3-difluorocyclobutyl)methyl)-3-(difluoromethyl)-4-(trifluoromethyl)-1H-pyrazole-5-carboxamide]
≤ 0.1 µM | CC1CCCC(Cn2nc(C3CC3)c(C(F)(F)F)c2C(=O)Nc2ccnc(C(N)=O)c2)O1 (stereo not drawn) [SC-143, 4-(3-cyclopropyl-1-((6-methyltetrahydro-2H-pyran-2-yl)methyl)-4-(trifluoromethyl)-1H-pyrazole-5-carboxamido)picolinamide]
≤ 0.1 µM | NC(=O)c1cc(NC(=O)c2c(C(F)(F)F)c(C3CC3)nn2CC2CC(F)(F)C2)ccn1 [SC-144, 4-(3-cyclopropyl-1-((3,3-difluorocyclobutyl)methyl)-4-(trifluoromethyl)-1H-pyrazole-5-carboxamido)picolinamide]
≤ 0.1 µM | CS(=O)(=O)c1cc(NC(=O)c2c(C(F)(F)F)c(C3CC3)nn2CC2CC(F)(F)C2)ccn1 [SC-151, 3-cyclopropyl-1-((3,3-difluorocyclobutyl)methyl)-N-(2-(methylsulfonyl)pyridin-4-yl)-4-(trifluoromethyl)-1H-pyrazole-5-carboxamide]
≤ 0.1 µM | CS(=O)(=O)c1cc(NC(=O)c2c(C(F)F)c(C3CC3)nn2CC2CCOCC2)ccn1 [SC-153, 3-cyclopropyl-4-(difluoromethyl)-N-(2-(methylsulfonyl)pyridin-4-yl)-1-((tetrahydro-2H-pyran-4-yl)methyl)-1H-pyrazole-5-carboxamide]
≤ 0.1 µM | CC(C)Oc1nn(CC2CCC(F)(F)C2)c(C(=O)Nc2ccnc(C(N)=O)c2)c1C(F)(F)F (stereo not drawn) [SC-155, 4-(1-((3,3-difluorocyclopentyl)methyl)-3-isopropoxy-4-(trifluoromethyl)-1H-pyrazole-5-carboxamido)picolinamide]
≤ 0.1 µM | CCOc1nn(CC2CCC(F)(F)C2)c(C(=O)Nc2ccnc(C(N)=O)c2)c1C(F)(F)F (stereo not drawn) [SC-156, 4-(1-((3,3-difluorocyclopentyl)methyl)-3-ethoxy-4-(trifluoromethyl)-1H-pyrazole-5-carboxamido)picolinamide]
≤ 0.1 µM | NC(=O)c1cc(NC(=O)c2c(C(F)(F)F)c(OC(F)F)nn2C[C@@H]2CCC(F)(F)C2)ccn1 [SC-158R]
≤ 0.1 µM | NC(=O)c1cc(NC(=O)c2c(C(F)(F)F)c(OC(F)F)nn2C[C@H]2CCC(F)(F)C2)ccn1 [SC-158S]
≤ 0.1 µM | NC(=O)c1cc(NC(=O)c2c(C(F)(F)F)c(C3CC3)nn2CC2CCC2)ccn1 [SC-159, 4-(1-(cyclobutylmethyl)-3-cyclopropyl-4-(trifluoromethyl)-1H-pyrazole-5-carboxamido)picolinamide]
≤ 0.1 µM | Cc1c(C(C)(F)F)nn(CC2CC(F)(F)C2)c1C(=O)Nc1ccnc(C(N)=O)c1 [SC-161, 4-(1-((3,3-difluorocyclobutyl)methyl)-3-(1,1-difluoroethyl)-4-methyl-1H-pyrazole-5-carboxamido)picolinamide]
≤ 0.1 µM | Cc1c(C(F)F)nn(CC2CCC(F)(F)CC2)c1C(=O)Nc1ccnc(C(N)=O)c1 [SC-163, 4-(1-((4,4-difluorocyclohexyl)methyl)-3-(difluoromethyl)-4-methyl-1H-pyrazole-5-carboxamido)picolinamide]
≤ 0.1 µM | Cc1c(C(C)(F)F)nn(CC2CCC(F)(F)C2)c1C(=O)Nc1ccnc(C(N)=O)c1 (stereo not drawn) [SC-167, 4-(1-((3,3-difluorocyclopentyl)methyl)-3-(1,1-difluoroethyl)-4-methyl-1H-pyrazole-5-carboxamido)picolinamide]
≤ 0.1 µM | CC(C)c1nn(CC2CC(F)(F)C2)c(C(=O)Nc2ccnc(C(N)=O)c2)c1C(F)(F)F [SC-170, 4-(1-((3,3-difluorocyclobutyl)methyl)-3-isopropyl-4-(trifluoromethyl)-1H-pyrazole-5-carboxamido)picolinamide]
≤ 0.1 µM | CCc1nn(CC2CC(F)(F)C2)c(C(=O)Nc2ccnc(C(N)=O)c2)c1C(F)(F)F [SC-172, 4-(1-((3,3-difluorocyclobutyl)methyl)-3-ethyl-4-(trifluoromethyl)-1H-pyrazole-5-carboxamido)picolinamide]
≤ 0.1 µM | CC(F)(F)c1nn(CC2CC(F)(F)C2)c(C(=O)Nc2ccnc(C(N)=O)c2)c1C(F)(F)F [SC-180, 4-(1-((3,3-difluorocyclobutyl)methyl)-3-(1,1-difluoroethyl)-4-(trifluoromethyl)-1H-pyrazole-5-carboxamido)picolinamide]

Source: patent US11999699B2, “Substituted pyrazole amides” (GRUENENTHAL GMBH, priority 2021, dated 2024)
